melting point [°C]	Structure (SMILES)
105 to 107	O=c1[nH]c2ccc(CCCN3CCC(Cc4ccc(F)cc4)CC3)cc2o1 [Example 1, 6-{3-[4-(4-fluorobenzyl)piperid-1-yl]propyl}-3H-benzoxazol-2-one]
202 to 203.5	O=c1[nH]c2ccc(C=CCN3CCC(Cc4ccc(F)cc4)CC3)cc2o1 [Example 2, 6-{3-[4-(4-fluorobenzyl)piperid-1-yl]propenyl}-3H-benzoxazol-2-one]

Reference: patent US6548516B1, “1-(3-heteroarylpropyl- or -prop-2-enyl)-4-benzylpiperidines used as NMDA receptor antagonists” (Merck Patent GmbH, priority 1998, dated 2003)
